For one assay, the system named is human acute promyelocytic leukemia cells (HL-60). In words: Differentiation of human acute promyelocytic leukemia cells (HL-60), morphological changes of nuclei and NBT reduction. The format is cell-based. Conditions: HL-60 cells, 4 days culture, Wright-Giemsa stain. Here is the method: The test of the activities of the compounds of this invention has been conducted by measuring the concentration required for inducing the differentiation of human acute promyelocytic leukemia cells (HL 60), according to the methods described in detail hereinafter.
The HL-60 cells are cultured in plastic flasks in RPMI 1640 medium supplemented with 5% heat-inactivated fetal calf serum and antibiotics (penicillin G and streptomycin). The cells (3×10^4 /ml) are cultured with a compound of the present invention for 4 days. The cells are fixed and stained with Wright-Giemsa to examine the morphological changes of the nuclei. […] The biochemical activity of cells treated with the compound is measured as follows:
The cells after 5 days incubation are centrifuged and diluted with RPMI 1640 medium, supplemented with 5% fetal calf serum, to provide a definite number of the cells. To the diluted cell suspension are then added 200 ng/ml of 12-o-tetradodecanoylphorbol-13-acetate (TPA) and the resulting culture medium is then incubated for 20 minutes at 37° C. in the presence of 0.1% of NBT. Thus, the mature differentiated cells containing blue-black formazan are counted by microscope, so that the ratio of the cells having the ability to reduce NBT, to total cells, can be calculated.
As a positive control for comparison, the known compounds represented by the formula (II) and trans retinoic acid were used.
As to `CC1=C(/C=C/C(C)=C/C=C/C(C)=C/C(=O)O)C(C)(C)CCC1` [retinoic acid], the “morphological changes of the nuclei (differentiation)” value was “differentiated to mature granulocytes (myelocytes, metamyelocytes and neutrophiles)”.

The assay is the same for the next values; noted with them: Homo sapiens, 96 h; HL-60 cells; Table 1; read-out: ED50 (effective doses which cause differentiation of 50% of the cultured cells).
On to `CC(C)(C)c1cccc(C(=O)/C=C/c2ccc(C(=O)O)cc2)c1`, for which the EC50 turned out to be 100 nM.

Turning to `C[Si](C)(C)c1cc(NC(=O)c2ccc(C(=O)O)cc2)cc([Si](C)(C)C)c1`, the EC50 came to 20 nM.

On to `CC(C)(C)c1cccc(NC(=O)c2ccc(C(=O)O)cc2)c1`, for which the EC50 was determined as 1000 nM.

Regarding `CC(C)(C)c1cc(C(=O)/C=C/c2ccc(C(=O)O)cc2)cc(C(C)(C)C)c1`, the EC50 was 0.4 nM.

The assay is the same for the next values; noted with them: Homo sapiens, HL-60, 96 h, read-out: ED50 (effective doses which cause differentiation of 50% of the cultured cells).
In the case of `C[Si](C)(C)c1cccc(NC(=O)c2ccc(C(=O)O)cc2)c1`, the EC50 was determined as 80 nM.

As to `C[Si](C)(C)c1cccc(/C=C/c2ccc(C(=O)O)cc2)c1`, the EC50 came out at 60 nM.

With `CC1=C(/C=C/C(C)=C/C=C/C(C)=C/C(=O)O)C(C)(C)CCC1` [retinoic acid], the EC50 stood at 2 nM.

On to `C[Si](C)(C)c1cc(C(=O)/C=C/c2ccc(C(=O)O)cc2)cc([Si](C)(C)C)c1`, for which the EC50 worked out at 0.2 nM.

The values above are taken from patent USRE36477E, “Benzoic acid derivatives and process for preparing the same” (Taiho Pharmaceutical Co., Ltd., priority 1988, dated 1999).
